# Measurements taken from patent publication US20050175535A1 (CV Therapeutics, Inc., priority 2000, published 2005).
# Assays:
# [1] = target: human A2A adenosine receptors (Homo sapiens, UniProt P29274); test: Competitive radioligand binding, [3H]ZM241385, HEK-hA2AAdoR membranes
# Procedure: Each point represents the mean±SEM of triplicates pooled from at least three experiments.
# ZM241385 was purchased from Tocris Cookson Ltd (Langford, Bristol, UK).
# Competitive radiolabeling binding assays were performed to determine the binding affinities of the compounds of the invention for the adenosine receptor subtypes, A1, A2A, A2B and A3. Briefly, membrane suspensions, obtained from cells expressing either adenosine receptor subtypes A1, A2A, A2B or A3were incubated for 2 hours at room temperature in 50 mmol/L Tris-HCl buffer (pH 7.4) containing ADA (1U/mL). […] At the end of the incubation, free radioligand was separated from membrane-bound radioligand by filtration through Whatman GF/C glass fiber filters using a Brandel tissue harvester (Gaithersburg, Md.). Triplicate determinations were performed for each concentration of unlabelled compound.
# [2] = Coronary blood flow and reversal time, intracoronary infusion in open-chest anesthetized pigs; assay type: in vivo; settings: 50 ug/kg/min intracoronary
# Procedure: The magnitude of the effect of A2A adenosine receptor agonists on coronary dilation and the duration of the effect was determined in pigs weighing 22-27 kg. […] In addition, animals were used in accordance with the guidelines of the University of Kentucky Institutional Animal Care and Use Protocol.
# Anesthesia was maintained with additional sodium pentobarbital (1.5-2 mg/kg, i.v.) every 15-20 minutes. Animals were ventilated via a tracheotomy tube using a mixture of room air and 100% O2. Tidal volume, respiratory rate and fraction of O2 in inspired air were adjusted to maintain arterial blood gas (ABG) and pH values. […] Lactate Ringers solution was administered via an ear or femoral vein as an initial bolus of 300-400 ml followed by a continuous infusion at a rate of 5-7 ml/kg/hr. A catheter was inserted into the femoral artery to monitor arterial blood pressure.
# The heart was exposed through a median sternotomy and suspended in a pericardial cradle. Left ventricular pressure (LVP) was measured with a 5F high fidelity pressure sensitive tip transducer (Millar Instruments, Houston, Tex.) placed in the left ventricular cavity via an apical incision and secured with a purse string suture. A segment of the left anterior descending coronary artery (LAD), proximal to the origin of the first diagonal branch, was dissected free of surrounding tissue. A transit time perivascular flow probe (Transonic Systems Inc., Ithaca, N.Y.) was placed around this segment to measure CBF. Proximal to the flow probe, a 24-gauge modified angiocatheter was inserted for intracoronary infusions. […] The A2A adenosine receptors agonists were administered intracoronary.
# Relationship between affinity of various agonists for A2A adenosine receptor and the reversal time of their effect to increase coronary conductance was determined in pigs. Each experiment was preceded by a 30-minute stabilization period following the completion of all instrumentation of the animal. Baseline hemodynamic data were then recorded and an intracoronary infusion of an A2A Adenosine receptors agonist was initiated. Each infusion was maintained for 4-5 minutes to allow LAD CBF to reach a steady-state, after which the infusion was terminated. The times to recovery of CBF by 50% (t0.5) and 90% (t0.9) of the difference from peak effect to baseline CBF were recorded. Ten to 15 minutes after CBF returned to pre-drug values a second infusion with a different agonist was started. […] Hemodynamic measurements were made prior to and following the initiation of the phenylephrine infusion. The phenylephrine infusion rate was adjusted during and following the infusions of the adenosine receptor agonists to maintain arterial blood pressure within 5 mmHg of pre-infusion values. The effect of a maximum of three different agonists was determined in each experiment.
# human A2A adenosine receptors, sequence (P29274 whole entry, the tested form may be a part): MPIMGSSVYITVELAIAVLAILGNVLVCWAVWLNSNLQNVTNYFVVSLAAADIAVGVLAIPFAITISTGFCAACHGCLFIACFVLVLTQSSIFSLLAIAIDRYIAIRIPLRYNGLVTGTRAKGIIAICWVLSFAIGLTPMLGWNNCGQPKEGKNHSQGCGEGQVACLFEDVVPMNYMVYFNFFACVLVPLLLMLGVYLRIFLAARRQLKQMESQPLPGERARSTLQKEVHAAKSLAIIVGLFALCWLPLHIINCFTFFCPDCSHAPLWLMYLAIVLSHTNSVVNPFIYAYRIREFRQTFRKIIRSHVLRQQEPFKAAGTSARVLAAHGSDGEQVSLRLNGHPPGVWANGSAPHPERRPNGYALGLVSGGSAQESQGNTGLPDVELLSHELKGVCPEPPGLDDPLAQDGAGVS
smiles,measurement,setting,value
CCCCCn1cc(-c2nc(N)c3ncn(C4O[C@@H](CO)[C@H](O)[C@@H]4O)c3n2)cn1 (some centres unmarked) [CVT-3033],Ki,[1]; binding affinity in HEK cells expressing human A2A receptors (Ki),2900 nM
same,Ki,"[1]; pKi ± SEM, HEK-hA2AAdoR, [3H]ZM241385",2880 nM
same,CBF (fold-increase),[2],3.33 ± 0.58 fold
same,t0.5 reversal of increase in coronary blood flow,[2],3.1 ± 0.9 min
same,t0.9 reversal of increase in coronary blood flow,[2],12.0 ± 1.0 min
